From patent US10314307B2, “(S)-abscisic acid derivatives for improving plant stress tolerance” (Valent BioSciences Corporation, priority 2015, dated 2019)

Key:
Format in all cases: in vivo
[1] = system: corn plants, 111 day, central corn belt variety; assay: Corn plant chilling (growth rate); details: for Growth Rate, Greenhouse 7-9 d post spray / Growth Rate, Greenhouse 0-2 d post spray / Growth Rate, Growth Chamber 10° C. 2-7 d post spray: Table 4 study; for Growth Rate, Greenhouse 7-9 d post spray: after chilling; for Growth Rate, Greenhouse 0-2 d post spray: before chilling; for Growth Rate, Growth Chamber 10° C. 2-7 d post spray: during chilling at 10° C.
Experimental: Corn seeds of a 111 day, central corn belt variety were planted in 2-quart pots filled with medium. After the corn grew for 10 days in the greenhouse at 24±3° C. (V2 to V3 growth stage), the plants received a foliar spray application of aqueous solutions of the test compounds containing 0.25% non-ionic surfactant with a volume equivalent to 30 gallons/acre. After spraying, plants were moved back to the greenhouse for 2 days, then moved to a growth chamber kept at 10° C. with a 16:8 light:dark cycle (cold treatment). After 5 days in the cold, plants were returned to the greenhouse for 2 days before being harvested destructively. Results of the studies comparing the growth rate of plants treated with S-ABA with 3′-methyl-(S)-ABA during the experiment are shown in Table 3. In additional studies, the effect of S-ABA and 3′-propargyl-(S)-ABA on corn growth rate in chilling studies was compared.

[2] = system: corn plants, commercial 111 day, central corn belt variety; assay: Corn stomatal conductance; details: for Average Stomatal Conductance (% of Control), 6 DAS: 6 days after spraying; for Average Stomatal Conductance (% of Control), 16 DAS: 16 days after spraying
Experimental: (§1) In this greenhouse experiment, foliar spray treatments containing 3′-methyl-(S)-abscisic acid, 3′-propargyl-(S)-abscisic acid or (S)-abscisic acid were applied to corn plants to evaluate their effect on gas exchange, as measured through stomatal conductance. Corn plants of a commercial, 111 day, central corn belt variety were grown in the greenhouse under optimal conditions for five weeks and were size-matched into ten groups of five plants. Using an aerosol sprayer, each group was sprayed to drip (25 milliliters per plant) with solutions containing a non-ionic surfactant (0.125%, v/v) and water (control), 2.5 mg, 7.5 mg or 25 mg/plant 3′-methyl-(S)-abscisic acid, or 2.5 mg, 7.5 mg or 25 mg/plant 3′-propargyl-(S)-abscisic acid, or 7.5 mg, 25 mg or 75 mg/plant (5)-ABA, respectively. After spraying, plants were returned to the greenhouse for the duration of the experiment. Stomatal conductance was measured using an AP4 porometer (Delta T Devices, Cambridge, UK) and the conductance for each plant was recorded at approximately the same time of day (˜10 AM) prior to treatment application as well as 1, 2, 5, 6, 9 and 16 days post-spraying.

[3] = system: corn plants, commercial 111 day, central corn belt variety; assay: Corn plant leaf rolling assay and shoot fresh weight under drought; details: for Shoot Fresh Weight, 15 DAS: 12 days drought then 3 days watering; for Average # of Rolled Leaves/Plant, 5 DAS / Average # of Rolled Leaves/Plant, 6 DAS / Average # of Rolled Leaves/Plant, 8 DAS: water withheld; for Average # of Rolled Leaves/Plant, 5 DAS: 5 days after spraying; for Average # of Rolled Leaves/Plant, 6 DAS: 6 days after spraying; for Average # of Rolled Leaves/Plant, 8 DAS: 8 days after spraying
Experimental: as §1, with “post-spraying. This study was conducted as described above with the following the exceptions. After spraying, plants were put back in the greenhouse and water was withheld for twelve days, simulating drought stress. The plants were then watered to saturation for three consecutive days before the plant shoots were cut at the soil surface and subsequently weighed in grams (fresh weight). Leaf-rolling data and fresh weight data were recorded for each plant following treatment application at the times specified below in Table 6.” for “post-spraying.”

soybean plants = assay: Soybean drought tolerance (stomatal conductance)
Experimental: In this study, soybean plants were grown for 10 days under ambient lab temperature conditions and illumination of 150 umol m^2 s^−1 and a 16:8 photoperiod. At spraying, the primary leaves were fully expanded and the first trifoliate leaves were partially expanded. The plants were sprayed to dampness with solutions of water, S-ABA, 3′-methyl-(S)-abscisic acid, or 3′-propargyl-(S)-abscisic acid containing 0.025% (v/v) non-ionic surfactant. At times following spraying, the conductance of the primary leaves was measured using an AP4 porometer (Delta T Devices, Cambridge, UK) to evaluate the effect on stomatal conductance. A decrease in stomatal aperture, reflected in the conductance measures, is an immediate and direct effect of applied S-ABA. To simplify the data, the controls were always set to 100%. In Table 9, the effect of spray applications on the stomatal conductance was measured.

[4] = foliar spray 30 mg/l (3.4 g/acre)
[5] = foliar spray 100 mg/l (11.4 g/acre)
[6] = foliar spray 300 mg/l (34.1 g/acre)
[7] = foliar spray 1000 mg/l (113.7 g/acre)
[8] = foliar spray 100 ppm or 2.5 mg/plant
[9] = foliar spray 300 ppm or 7.5 mg/plant
[10] = foliar spray 1000 ppm or 25 mg/plant

C#CCC1=C(C)[C@](O)(/C=C/C(C)=C\C(=O)O)C(C)(C)CC1=O [3′-propargyl-(S)-ABA, (2Z,4E)-5-((S)-1-hydroxy-2,6,6-trimethyl-4-oxo-3-(prop-2-yn-1-yl)cyclohex-2-en-1-yl)-3-methylpenta-2,4-dienoic acid]
Growth during stress recovery following cold ([1]; 3′-propargyl-(S)-ABA particularly between 11.4 and 113.7 g/acre, S-ABA at rates up to 1000 mg/liter (113.7 g/acre)): did aid growth during stress recovery
Maintenance of growth under cold (10° C.) conditions ([1]; S-ABA even at 1000 mg/l (113.7 g/acre)): did not maintain growth under cold stress
Growth Rate, Greenhouse 7-9 d post spray [1, 4]: 1.978 cm/day
Growth Rate, Greenhouse 0-2 d post spray [1, 4]: 3.239 cm/day
Growth Rate, Growth Chamber 10° C. 2-7 d post spray [1, 4]: 1.258 cm/day
Growth Rate, Greenhouse 7-9 d post spray [1, 5]: 2.489 cm/day
Growth Rate, Greenhouse 0-2 d post spray [1, 5]: 2.294 cm/day
Growth Rate, Growth Chamber 10° C. 2-7 d post spray [1, 5]: 1.173 cm/day
Growth Rate, Greenhouse 7-9 d post spray [1, 6]: 2.500 cm/day
Growth Rate, Greenhouse 0-2 d post spray [1, 6]: 2.544 cm/day
Growth Rate, Growth Chamber 10° C. 2-7 d post spray [1, 6]: 1.033 cm/day
Growth Rate, Greenhouse 7-9 d post spray [1, 7]: 2.300 cm/day
Growth Rate, Greenhouse 0-2 d post spray [1, 7]: 2.172 cm/day
Growth Rate, Growth Chamber 10° C. 2-7 d post spray [1, 7]: 0.787 cm/day
Average Stomatal Conductance (% of Control), 6 DAS [2, 8]: 80.6 % of Control
Average Stomatal Conductance (% of Control), 16 DAS [2, 8]: 87.7 % of Control
Average Stomatal Conductance (% of Control), 6 DAS [2, 9]: 74.3 % of Control
Average Stomatal Conductance (% of Control), 16 DAS [2, 9]: 77.9 % of Control
Average Stomatal Conductance (% of Control), 6 DAS [2, 10]: 56.0 % of Control
Average Stomatal Conductance (% of Control), 16 DAS [2, 10]: 59.0 % of Control
Relative potency resulting in a 25% reduction in transpiration, times that seen with S-ABA ([2]; regression of the data in Table 5): 4.83 times
Shoot Fresh Weight, 15 DAS ([3]; 100 ppm or 2.5 mg/plant): 263.9 grams
Average # of Rolled Leaves/Plant, 5 DAS ([3]; 100 ppm or 2.5 mg/plant): 1.8
Average # of Rolled Leaves/Plant, 6 DAS ([3]; 100 ppm or 2.5 mg/plant): 3.8
Average # of Rolled Leaves/Plant, 8 DAS ([3]; 100 ppm or 2.5 mg/plant): 7.2
Shoot Fresh Weight, 15 DAS ([3]; 300 ppm or 7.5 mg/plant): 313.1 grams
Average # of Rolled Leaves/Plant, 5 DAS ([3]; 300 ppm or 7.5 mg/plant): 1.8
Average # of Rolled Leaves/Plant, 6 DAS ([3]; 300 ppm or 7.5 mg/plant): 3.6
Average # of Rolled Leaves/Plant, 8 DAS ([3]; 300 ppm or 7.5 mg/plant): 8.0
Shoot Fresh Weight, 15 DAS ([3]; 1000 ppm or 25 mg/plant): 334.4 grams
Average # of Rolled Leaves/Plant, 5 DAS ([3]; 1000 ppm or 25 mg/plant): 0.0
Average # of Rolled Leaves/Plant, 6 DAS ([3]; 1000 ppm or 25 mg/plant): 0.0
Average # of Rolled Leaves/Plant, 8 DAS ([3]; 1000 ppm or 25 mg/plant): 7.0
Reduction in stomatal conductance at 1 day post spraying (soybean plants; 300 mg/l foliar spray): 92%
Percent Conductance (stomatal conductance, control = 100%), Day 1 (soybean plants; foliar spray 300 mg/l, 0.3 mg/plant, Day 1): 8%
Percent Conductance (stomatal conductance, control = 100%), Day 2 (soybean plants; foliar spray 300 mg/l, 0.3 mg/plant, Day 2): 14%
Percent Conductance (stomatal conductance, control = 100%), Day 5 (soybean plants; foliar spray 300 mg/l, 0.3 mg/plant, Day 5): 33%
Percent Conductance (stomatal conductance, control = 100%), Day 6 (soybean plants; foliar spray 300 mg/l, 0.3 mg/plant, Day 6): 52%
Percent Conductance (stomatal conductance, control = 100%), Day 7 (soybean plants; foliar spray 300 mg/l, 0.3 mg/plant, Day 7): 57%
